{"source": "patent US20250325524A1", "about": "“COMPOSITIONS AND METHODS FOR TREATING RENAL INJURY” (CASE WESTERN RESERVE UNIVERSITY, priority 2018, published 2025)", "key": {"malondialdehyde (MDA)": {"system": "malondialdehyde (MDA)", "assay": "renal IRI model: malondialdehyde (MDA) in kidney tissue", "format": "in vivo", "details": "IRI mice, single pre-IRI dose; vehicle peak 48% at 2 hours", "method": "Mice were anesthetized with isoflurane using a vaporizer and placed on a heating pad to maintain their body temperature at 37° C. Both renal arteries were identified through dorsal incisions and clamped for 20, 30, 35, or 37 minutes. Reperfusion was confirmed visually upon release of the clamps. Surgical wounds were closed, and mice were administered 1 mL of saline i.p. The mice were kept in a warm incubator until they regained consciousness and were allowed to recover with ad libitum access to food and water. […]\nReactive oxygen species (ROS) levels were determined by measurement of malondialdehyde (MDA), the end product of lipid peroxidation in […]. Free MDA reacts with thiobarbituric acid (TBA) at 95° C. to generate an MDA-TBA adduct, which can be quantified colorimetrically at a wavelength of 532 nm. MDA levels were measured in kidney lysates using a lipid peroxidation (MDA) assay kit (ab118970; Abcam). Results were corrected for total protein level and are expressed as […]."}, "mice with ischemic AKI": {"system": "mice with ischemic AKI", "assay": "renal IRI model: necrotic and apoptotic cell death in the outer medulla", "format": "in vivo", "method": "Mice were anesthetized with isoflurane using a vaporizer and placed on a heating pad to maintain their body temperature at 37° C. Both renal arteries were identified through dorsal incisions and clamped for 20, 30, 35, or 37 minutes. Reperfusion was confirmed visually upon release of the clamps. Surgical wounds were closed, and mice were administered 1 mL of saline i.p. The mice were kept in a warm incubator until they regained consciousness and were allowed to recover with ad libitum access to food and water. […] Serum and kidney tissue were collected 24 hours after renal IRI.\nTo evaluate necrosis, 5-μm-thick paraffin sections were stained with H&E. Tubular injury was scored semi quantitatively according to a scoring system by a pathologist who examined at least 20 separate fields (×400) in the outer medulla, which is the zone most sensitive to ischemic injury. The scoring system was as follows: 0, no damage; 1, patchy isolated unicellular necrosis; 2, tubular necrosis <25%; 3, tubular necrosis 25-50%; and 4, tubular necrosis >50%. At least 20 consecutive high-power fields (magnification, ×400) per section were scored by two operators blind to the details of the experiment. To analyze the frequency of apoptosis, 5-μm-thick paraffin sections were subjected to terminal deoxynucleotidyl transferase-mediated dUTP nick-end labeling (TUNEL) assay (APT110; Millipore) according to the manufacturer's protocol. TUNEL-positive cells were counted in at least five separate fields (×640 magnification) in the outer medulla, and the apoptosis index (%, number of apoptosis cells/total number of cells) was calculated using GENASIS software."}}, "note": "“Also recorded” adds a separate entry of the source."}
{"smiles": "CCCC[S+]([O-])c1sc2nc(-c3cccs3)cc(-c3ccccc3)c2c1N", "note": "(centres unmarked) [SW033291]", "values": [{"measurement": "increase of malondialdehyde (MDA) above baseline", "setting": "malondialdehyde (MDA)", "result": 14, "unit": "%"}, {"measurement": "histologic renal injury score", "setting": "mice with ischemic AKI; 3 doses 5 mg/kg i.p., POD1, H&E, outer medulla", "result": "reducing"}, {"measurement": "count of TUNEL positive apoptotic cells", "setting": "mice with ischemic AKI; 3 doses 5 mg/kg i.p., POD1, outer medulla", "result": "reducing"}, {"measurement": "tissue congestion in the outer medulla (gross pathology)", "setting": "mice with ischemic AKI; 3 doses 5 mg/kg i.p., POD1, vs IRI-vehicle", "result": "ameliorated"}, {"measurement": "renal injury (histopathology, tubular injury)", "setting": "mice with ischemic AKI; 3 doses 5 mg/kg, POD1, 5 mg/kg", "result": "markedly alleviated renal injury; also recorded: more effective than systemic administration of either exogenous PGE1 or PGE2"}]}
